Reference: US6686478B2, “Thienylsulphonylamino(thio)carbonyl compounds” (Bayer Aktiengesellschaft, priority 1996, dated 2004)

Tests used:
weeds [1] = assay: Pre-emergence test, summary for weeds; type: in vivo; settings: result in words
Procedure: (§1) Solvent: 5 parts by weight of acetone
(§2) Emulsifier: 1 part by weight of alkylaryl polyglycol ether
(§3) To produce a suitable preparation of active compound, 1 part by weight of active compound is mixed with the stated amount of solvent, the stated amount of emulsifier is added and the concentrate is diluted with water to the desired concentration.
(§4) Seeds of the test plants are sown in normal soil. After about 24 hours, the soil is watered with the preparation of the active compound. Advantageously, the amount of water per unit area is kept constant. The active compound concentration in the preparation is not important, only the active compound application rate per unit area is critical.
(§5) After three weeks, the degree of damage to the plants is rated in % damage in comparison with the development of the untreated control. The figures denote:
(§6) 0%=no effect (like untreated control)

Amaranthus [2] = assay: Pre-emergence test/greenhouse; type: in vivo; settings: greenhouse, 250 g of ai./ha, after three weeks, 0%=no effect, 100%=total destruction
Procedure: as §1, §2, §3, §4, §5, §6

Sinapis [3] = assay: Pre-emergence test/greenhouse; type: in vivo; settings: greenhouse, 250 g of ai./ha, after three weeks, 0%=no effect, 100%=total destruction
Procedure: as §1, §2, §3, §4, §5, §6

Xanthium = assay: Pre-emergence test/greenhouse; type: in vivo; settings: greenhouse, 250 g of ai./ha, after three weeks, 0%=no effect, 100%=total destruction
Procedure: as §1, §2, §3, §4, §5, §6

Abutilon [4] = assay: Pre-emergence test/greenhouse; type: in vivo; settings: greenhouse, 250 g of ai./ha, after three weeks, 0%=no effect, 100%=total destruction
Procedure: as §1, §2, §3, §4, §5, §6

Alopecurus = assay: Pre-emergence test/greenhouse; type: in vivo; settings: greenhouse, 250 g of ai./ha, after three weeks, 0%=no effect, 100%=total destruction
Procedure: as §1, §2, §3, §4, §5, §6

weeds [5] = assay: Post-emergence test, summary for weeds; type: in vivo; settings: result in words
Procedure: as §1, §2, §3
(§7) Test plants which have a height of 5-15 cm are sprayed with the preparation of the active compound in such a way as to apply the particular amounts of active compound desired per unit area. The concentration of the spray liquor is chosen so that the amounts of active compound desired in each case are applied in 1000 l of water/ha.
(§8) After three weeks, the degree of damage to the plants is rated in % damage in comparison with the development of the untreated control.
as §6

Maize [6] = assay: Post-emergence test/greenhouse; type: in vivo; settings: greenhouse, 250 g of ai/ha, after three weeks, 0%=no effect, 100%=total destruction
Procedure: as §1, §2, §3, §7, §8, §6

Amaranthus [7] = assay: Post-emergence test/greenhouse; type: in vivo; settings: greenhouse, 250 g of ai/ha, after three weeks, 0%=no effect, 100%=total destruction
Procedure: as §1, §2, §3, §7, §8, §6

Sinapis [8] = assay: Post-emergence test/greenhouse; type: in vivo; settings: greenhouse, 250 g of ai/ha, after three weeks, 0%=no effect, 100%=total destruction
Procedure: as §1, §2, §3, §7, §8, §6

Setaria [9] = assay: Post-emergence test/greenhouse; type: in vivo; settings: greenhouse, 250 g of ai/ha, after three weeks, 0%=no effect, 100%=total destruction
Procedure: as §1, §2, §3, §7, §8, §6

Cyperus = assay: Pre-emergence test/greenhouse; type: in vivo; settings: greenhouse, 125 g of ai./ha, after three weeks, 0%=no effect, 100%=total destruction
Procedure: as §1, §2, §3, §4, §5, §6

Solanum = assay: Pre-emergence test/greenhouse; type: in vivo; settings: greenhouse, 125 g of ai./ha, after three weeks, 0%=no effect, 100%=total destruction
Procedure: as §1, §2, §3, §4, §5, §6

Chenopodium = assay: Pre-emergence test/greenhouse; type: in vivo; settings: greenhouse, 125 g of ai./ha, after three weeks, 0%=no effect, 100%=total destruction
Procedure: as §1, §2, §3, §4, §5, §6

Matricaria = assay: Pre-emergence test/greenhouse; type: in vivo; settings: greenhouse, 125 g of ai./ha, after three weeks, 0%=no effect, 100%=total destruction
Procedure: as §1, §2, §3, §4, §5, §6

Bromus = assay: Pre-emergence test/greenhouse; type: in vivo; settings: greenhouse, 125 g of ai./ha, after three weeks, 0%=no effect, 100%=total destruction
Procedure: as §1, §2, §3, §4, §5, §6

Lolium = assay: Pre-emergence test/greenhouse; type: in vivo; settings: greenhouse, 125 g of ai./ha, after three weeks, 0%=no effect, 100%=total destruction
Procedure: as §1, §2, §3, §4, §5, §6

Setaria [10] = assay: Pre-emergence test/greenhouse; type: in vivo; settings: greenhouse, 125 g of ai./ha, after three weeks, 0%=no effect, 100%=total destruction
Procedure: as §1, §2, §3, §4, §5, §6

Wheat = assay: Pre-emergence test/greenhouse; type: in vivo; settings: greenhouse, 125 g of ai./ha, after three weeks, 0%=no effect, 100%=total destruction
Procedure: as §1, §2, §3, §4, §5, §6

Maize [11] = assay: Pre-emergence test/greenhouse; type: in vivo; settings: greenhouse, 125 g of ai./ha, after three weeks, 0%=no effect, 100%=total destruction
Procedure: as §1, §2, §3, §4, §5, §6

Abutilon [12] = assay: Post-emergence test/greenhouse; type: in vivo; settings: greenhouse, 250 g of ai/ha, after three weeks, 0%=no effect, 100%=total destruction
Procedure: as §1, §2, §3, §7, §8, §6

Structure (SMILES) | activity against weeds (weeds [1]) | activity against weeds (weeds [5]) | degree of damage to the plants, Amaranthus (Amaranthus [7]) [%] | degree of damage to the plants, Sinapis (Sinapis [8]) [%] | degree of damage to the plants, Setaria (Setaria [9]) [%] | degree of damage to the plants, Cyperus (Cyperus) [%] | degree of damage to the plants, Solanum (Solanum) [%] | degree of damage to the plants, Chenopodium (Chenopodium) [%] | degree of damage to the plants, Matricaria (Matricaria) [%] | degree of damage to the plants, Bromus (Bromus) [%] | degree of damage to the plants, Lolium (Lolium) [%] | degree of damage to the plants, Setaria (Setaria [10]) [%] | also measured
CCCOc1nn(C(=O)NS(=O)(=O)c2c(C)csc2C)c(=O)n1C [Example 5] | very strong activity |  |  |  |  |  |  |  |  |  |  |  | degree of damage to the plants, Amaranthus (Amaranthus [2]): 90%; degree of damage to the plants, Sinapis (Sinapis [3]): 95%; degree of damage to the plants, Xanthium (Xanthium): 90%; degree of damage to the plants, Abutilon (Abutilon [4]): 90%; degree of damage to the plants, Alopecurus (Alopecurus): 70%
C#CCSc1nn(C(=O)NS(=O)(=O)c2c(C)csc2C)c(=O)n1C [Example 14] |  | very strong activity | 95 | 95 | 90 |  |  |  |  |  |  |  | degree of damage to the plants, Maize (Maize [6]): 10%
COc1nn(C(=O)NS(=O)(=O)c2c(C)csc2C)c(=O)n1C [Example 11] | very strong activity |  |  |  |  | 100 | 95 | 95 | 100 | 100 | 100 | 100 | 
Cc1csc(C)c1S(=O)(=O)NC(=O)n1nc(OC(C)C)n(C)c1=O [Example 6] |  | very strong activity | 90 | 100 | 80 |  |  |  |  |  |  |  | degree of damage to the plants, Maize (Maize [6]): 10%
CCOc1nn(C(=O)NS(=O)(=O)c2c(C)csc2C)c(=O)n1C1CC1 [Example 12] | very strong activity |  |  |  |  |  |  |  |  |  |  |  | degree of damage to the plants, Amaranthus (Amaranthus [2]): 90%; degree of damage to the plants, Sinapis (Sinapis [3]): 95%; degree of damage to the plants, Abutilon (Abutilon [4]): 90%; degree of damage to the plants, Alopecurus (Alopecurus): 70%
CCOc1nn(C(=O)NS(=O)(=O)c2c(C)csc2C)c(=O)n1C [Example 1, 5-ethoxy-4-methyl-2-(2,4-dimethyl-thien-3-yl-sulphonylaminocarbonyl)-2,4-dihydro-3H-1,2,4-triazol-3-one] | very strong activity |  |  |  |  | 95 | 100 | 100 | 100 | 100 | 100 | 100 | melting point: 158 °C; degree of damage to the plants, Wheat (Wheat): 0%
CCc1nn(C(=O)NS(=O)(=O)c2c(C)csc2C)c(=O)n1C [Example 3] | very strong activity |  |  |  |  | 100 | 100 | 100 | 100 | 100 | 100 | 100 | degree of damage to the plants, Maize (Maize [11]): 5%
CSc1nn(C(=O)NS(=O)(=O)c2c(C)csc2C)c(=O)n1C [Example 4] | very strong activity |  |  |  |  | 95 | 80 | 90 | 90 | 95 | 100 | 100 | degree of damage to the plants, Maize (Maize [11]): 0%; degree of damage to the plants, Wheat (Wheat): 0%
Cc1nc(C(=O)NS(=O)(=O)c2c(C)csc2C)no1 [Example 2, N-(2,4-dimethyl-thien-3-yl-sulphonyl)-5-methyl-1,2,4-oxadiazol-3-carboxamide] |  |  |  |  |  |  |  |  |  |  |  |  | melting point: 164 °C
CCOc1nn(C(=O)NS(=O)(=O)c2c(C)csc2C)c(=O)n1CC [Example 13] |  | very strong activity | 100 | 100 | 80 |  |  |  |  |  |  |  | degree of damage to the plants, Abutilon (Abutilon [12]): 80%
